Legend:
SERT and NET = details: cited from earlier work
NET [1] = biological target: T1, NET (Homo sapiens, UniProt P23975); assay: hNET neurotransmitter uptake assay (3H-NE); assay type: cell-based; design: expressed in transfected cells; host or cells: HEK-293; details: norepinephrine reuptake inhibition, HEK-293 hNET cells, 3H-NE (no asterisk); read-out: NET pIC50 (converted)
Method: (§1) Neurotransmitter uptake assays were used to measure inhibition of ^3H-serotonin (^3H-5-HT), ^3H-norepinephrine (^3H-NE), and ^3H-dopamine (^3H-DA) uptake into cells expressing the respective transporter (hSERT, hNET or hDAT) in order to determine the pIC50 values of test compounds at the transporters.
(§2) HEK-293 derived cell lines stably-transfected with hSERT, hNET, or hDAT, respectively, were grown in DMEM medium supplemented with 10% dialyzed FBS (for hSERT) or FBS (for hNET and hDAT), 100 μg/ml penicillin, 100 μg/ml streptomycin, 2 mM L-glutamine and 250 μg/ml of the aminoglycoside antibiotic G418 (for hSERT and hNET) or 800 ug/ml (for hDAT), in a 5% CO2 humidified incubator at 37° C. When cultures reached 80% confluence, the cells were washed thoroughly in PBS (without Ca^2+ and Mg^2+) and lifted with 5 mM EDTA in PBS. Cells were harvested by centrifugation at 1100 rpm for 5 minutes, washed once by resuspension in PBS, then centrifuged. The supernatant was discarded and the cell pellet resuspended, by gentle trituration, in room temperature Krebs-Ringer bicarbonate buffer containing HEPES (10 mM), CaCl2 (2.2 mM), ascorbic acid (200 μM) and pargyline (200 μM), pH 7.4. The final concentration of cells in the cell suspension was 7.5×10^4 cells/ml, 1.25×10^5 cells/ml, and 5.0×10^4 cells/ml for SERT, NET, and DAT cell lines, respectively.
(§3) Neurotransmitter uptake assays were performed in a 96-well assay plate in a total volume of 400 μl assay buffer (Krebs-Ringer bicarbonate buffer containing HEPES (10 mM), CaCl2 (2.2 mM), ascorbic acid (200 μM) and pargyline (200 μM), pH 7.4) with 1.5×10^4 and 2.5×10^4 cells, for SERT, NET, and DAT, respectively. […] Stock solutions (10 mM in DMSO) of test compound were prepared and serial dilutions prepared using 50 mM Tris-HCl, 120 mM NaCl, 5 mM KCl, pH 7.4, 0.1% BSA, 400 μM ascorbic acid. Test compounds were incubated for 30 minutes at 37° C. with the respective cells, prior to addition of radiolabeled neurotransmitter, ^3H-5-HT (20 nM final concentration), ^3H-NE (50 nM final concentration) or ^3H-DA (100 nM final concentration). Non-specific neurotransmitter uptake was determined in the presence of 2.5 μM duloxetine, 2.5 μM desipramine, or 10 uM GBR-12909 (each in Dilution Buffer) for the hSERT, hNET, or hDAT assays, respectively.
(§4) Following a 10 minute incubation, at 37° C., with radioligand, the cells were harvested by rapid filtration over a 96-well UniFilter GF/B plate, pretreated with 1% BSA, and washed 6 times with 650 μl wash buffer (ice cold PBS). Plates were dried overnight at 37° C., ˜45 μl of MicroScint™-20 (Perkin Elmer) added and incorporated radioactivity quantitated via liquid scintillation spectroscopy Inhibition curves were analyzed using GraphPad Prism Software package (GraphPad Software, Inc., San Diego, Calif.). IC50 values were generated from concentration response curves using the Sigmoidal Dose Response (variable slope) algorithm in Prism GraphPad.

NET [2] = biological target: T1, NET; assay: hNET membrane radioligand binding assay (3H-nisoxetine); design: expressed in transfected cells; host or cells: HEK-293; details: hNET membranes (HEK-293), 1.0 nM 3H-nisoxetine; read-out: NET pKi (converted)
Method in brief: (§5)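 HEK-293 membranes stably expressing hNET or hSERT; inhibition of ³H-nisoxetine (hNET) or ³H-citalopram (hSERT) binding in 50 mM Tris-HCl, 120 mM NaCl, 5 mM KCl, pH 7.4, 60 min at 22 °C. Filtration, scintillation counting; nonspecific with 1 μM desipramine (NET) or 1 μM duloxetine (SERT). pKi via Cheng-Prusoff from IC50 and radioligand Kd.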

SERT [3] = biological target: T2, SERT (Homo sapiens, UniProt P31645); assay: hSERT neurotransmitter uptake assay (3H-5-HT); assay type: cell-based; design: expressed in transfected cells; host or cells: HEK-293; details: serotonin reuptake inhibition, HEK-293 hSERT cells, 3H-5-HT (no asterisk); read-out: SERT pIC50 (converted)
T2 sequence (P31645 whole entry): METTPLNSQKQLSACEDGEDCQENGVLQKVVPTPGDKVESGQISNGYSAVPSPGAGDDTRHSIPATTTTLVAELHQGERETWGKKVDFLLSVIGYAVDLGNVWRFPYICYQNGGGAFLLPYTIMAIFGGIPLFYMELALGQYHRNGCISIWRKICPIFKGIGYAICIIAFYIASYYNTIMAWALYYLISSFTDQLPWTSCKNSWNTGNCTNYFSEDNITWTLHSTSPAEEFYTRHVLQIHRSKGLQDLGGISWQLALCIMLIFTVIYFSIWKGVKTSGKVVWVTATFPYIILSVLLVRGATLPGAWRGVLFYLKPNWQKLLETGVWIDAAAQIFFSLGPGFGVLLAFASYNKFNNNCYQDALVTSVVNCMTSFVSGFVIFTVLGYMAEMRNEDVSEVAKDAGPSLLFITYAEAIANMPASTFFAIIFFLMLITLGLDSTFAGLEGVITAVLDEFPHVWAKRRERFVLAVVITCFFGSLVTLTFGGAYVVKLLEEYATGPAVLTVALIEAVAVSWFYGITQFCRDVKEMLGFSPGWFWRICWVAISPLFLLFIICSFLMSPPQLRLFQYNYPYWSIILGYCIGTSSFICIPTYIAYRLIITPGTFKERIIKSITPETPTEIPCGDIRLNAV
Method: as §1, §2, §3, §4

SERT [4] = biological target: T2, SERT; assay: hSERT membrane radioligand binding assay (3H-citalopram); design: expressed in transfected cells; host or cells: HEK-293; details: hSERT membranes (HEK-293), 1.0 nM 3H-citalopram; for Ki: read-out: SERT pKi (converted)
Method in brief: as §5

T1 sequence (P23975 whole entry): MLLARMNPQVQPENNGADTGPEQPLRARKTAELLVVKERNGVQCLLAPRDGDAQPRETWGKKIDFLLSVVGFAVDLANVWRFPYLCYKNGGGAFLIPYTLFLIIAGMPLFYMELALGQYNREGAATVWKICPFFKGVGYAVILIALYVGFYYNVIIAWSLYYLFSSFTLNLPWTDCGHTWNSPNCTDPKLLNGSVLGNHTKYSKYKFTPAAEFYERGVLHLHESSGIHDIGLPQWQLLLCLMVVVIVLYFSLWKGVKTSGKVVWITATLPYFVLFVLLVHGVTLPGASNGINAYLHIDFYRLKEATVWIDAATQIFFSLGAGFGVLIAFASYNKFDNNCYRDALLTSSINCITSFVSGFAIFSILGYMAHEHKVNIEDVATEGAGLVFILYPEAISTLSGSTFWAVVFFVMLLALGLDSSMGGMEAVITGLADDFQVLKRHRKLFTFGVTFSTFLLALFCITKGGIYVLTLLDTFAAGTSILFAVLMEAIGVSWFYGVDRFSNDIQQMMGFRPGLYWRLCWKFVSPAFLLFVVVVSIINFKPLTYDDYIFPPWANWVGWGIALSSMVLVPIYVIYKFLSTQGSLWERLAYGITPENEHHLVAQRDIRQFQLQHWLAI

Row | IC50 (NET [1]) | Ki (NET [2]) | IC50 (SERT [3]) | Ki (SERT [4]) | SERT pKi (SERT [4]) | Compound | NET selective (SERT and NET) | selectivity (measured as pKi) for SERT over NET (SERT and NET) | affinity for SERT relative to NET (SERT and NET; Vaishnavi et al. (2004))
1 | ≤ 10 nM | ≤ 10 nM | ≤ 100 nM | ≤ 10 nM | – | FC(F)(F)c1c(Cl)cccc1O[C@H](C1CCOCC1)[C@@H]1CCNC1 [Example 13-20, (R)-3-[(R)-(3-Chloro-2-trifluoromethylphenoxy)(tetrahydropyran-4-yl)-methyl]-pyrrolidine] | – | – | –
2 | ≤ 10 nM | ≤ 10 nM | ≤ 100 nM | ≤ 10 nM | – | COC[C@@H](Oc1cccc(Cl)c1C)[C@H]1CCNC1 [Example 4-15, (S)-3-[(S)-1-(3-Chloro-2-methylphenoxy)-2-methoxyethyl]pyrrolidine] | – | – | –
3 | ≤ 10 nM | ≤ 10 nM | ≤ 100 nM | ≤ 10 nM | – | COCC(Oc1cccc(Cl)c1Cl)C1CCNC1 (stereo not drawn) [Example 4-5, 3-[1-(2,3-Dichlorophenoxy)-2-methoxyethyl]pyrrolidine] | – | – | –
4 | ≤ 10 nM | ≤ 10 nM | ≤ 100 nM | ≤ 10 nM | – | Fc1cccc(O[C@H](C2CCOCC2)[C@@H]2CCNC2)c1Cl [Example 13-16, (R)-3-[(R)-(2-Chloro-3-fluorophenoxy)(tetrahydropyran-4-yl)methyl]pyrrolidine] | – | – | –
5 | ≤ 10 nM | ≤ 10 nM | ≤ 10 nM | ≤ 10 nM | – | Clc1ccc(O[C@H](C2CCOCC2)[C@@H]2CCNC2)cc1 [Example 13-9, (R)-3-[(R)-(4-Chlorophenoxy)(tetrahydropyran-4-yl)methyl]pyrrolidine] | – | – | –
6 | ≤ 10 nM | ≤ 10 nM | ≤ 10 nM | ≤ 10 nM | – | Clc1cc(Cl)cc(O[C@@H](C2CCOCC2)[C@@H]2CCNC2)c1 [Example 13-30, (R)-3-[(S)-(3,5-Dichlorophenoxy)(tetrahydropyran-4-yl)methyl]pyrrolidine] | – | – | –
7 | ≤ 10 nM | ≤ 10 nM | ≤ 100 nM | ≤ 10 nM | – | COCC(Oc1cccc(Cl)c1C(F)(F)F)C1CCNC1 (stereo not drawn) [Example 4-18, 3-[1-(3-Chloro-2-trifluoromethylphenoxy)-2-methoxyethyl]pyrrolidine] | – | – | –
8 | ≤ 10 nM | ≤ 10 nM | ≤ 10 nM | ≤ 10 nM | – | COC[C@H](Oc1ccc(Cl)cc1C)[C@H]1CCNC1 [Example 4-25, (S)-3-[(R)-1-(4-Chloro-2-methylphenoxy)-2-methoxyethyl]pyrrolidine] | – | – | –
9 | ≤ 10 nM | ≤ 10 nM | ≤ 100 nM | ≤ 10 nM | – | COC[C@H](Oc1cccc(Cl)c1C(F)(F)F)[C@H]1CCNC1 [Example 4-21, (S)-3-[(R)-1-(3-Chloro-2-trifluoromethylphenoxy)-2-methoxyethyl]pyrrolidine] | – | – | –
10 | ≤ 100 nM | ≤ 10 nM | ≤ 100 nM | ≤ 10 nM | – | COC[C@@H](Oc1cccc(F)c1Cl)[C@H]1CCNC1 [Example 4-13, (S)-3-[(S)-1-(2-Chloro-3-fluorophenoxy)-2-methoxyethyl]pyrrolidine] | – | – | –
11 | ≤ 100 nM | ≤ 10 nM | ≤ 100 nM | ≤ 10 nM | – | Clc1cc(Cl)cc(O[C@H](C2CCOCC2)[C@@H]2CCNC2)c1 [Example 13-29, (R)-3-[(R)-(3,5-Dichlorophenoxy)(tetrahydropyran-4-yl)methyl]pyrrolidine] | – | – | –
12 | ≤ 10 nM | ≤ 10 nM | ≤ 100 nM | ≤ 10 nM | – | COCC(Oc1ccc(Cl)cc1C)C1CCNC1 (stereo not drawn) [Example 4-26, 3-[1-(4-Chloro-2-methylphenoxy)-2-methoxyethyl]pyrrolidine] | – | – | –
13 | ≤ 10 nM | ≤ 10 nM | ≤ 100 nM | ≤ 10 nM | – | Clc1ccccc1O[C@@H](C1CCOCC1)[C@@H]1CCNC1 [Example 13-3, (R)-3-[(S)-(2-Chlorophenoxy)(tetrahydropyran-4-yl)methyl]pyrrolidine] | – | – | –
14 | ≤ 10 nM | ≤ 10 nM | ≤ 10 nM | ≤ 10 nM | – | CCOC[C@@H](Oc1cccc(Cl)c1Cl)[C@H]1CCNC1 [Example 7-8, (S)-3-[(S)-1-(2,3-Dichlorophenoxy)-2-ethoxyethyl]pyrrolidine] | – | – | –

More lines, now with the values behind:

Row | Compound | IC50 (NET [1]) | Ki (NET [2]) | IC50 (SERT [3]) | Ki (SERT [4]) | SERT pKi (SERT [4]) | NET selective (SERT and NET) | selectivity (measured as pKi) for SERT over NET (SERT and NET) | affinity for SERT relative to NET (SERT and NET; Vaishnavi et al. (2004))
15 | CNCC[C@@H](Oc1ccccc1C)c1ccccc1 [Atomoxetine] | – | – | – | – | – | 10 fold | – | –
16 | CCN(CC)C(=O)C1(c2ccccc2)CC1CN (stereo not drawn) [milnacipran] | – | – | – | – | – | – | 2.5 fold | –
17 | CNCC[C@H](Oc1cccc2ccccc12)c1cccs1 [duloxetine] | – | – | – | – | – | – | 10 fold | higher affinity for SERT relative to NET
18 | Clc1cccc(O[C@@H](C2CCOCC2)[C@@H]2CCNC2)c1Cl [Example 12, (R)-3-[(S)-(2,3-Dichlorophenoxy)(tetrahydropyran-4-yl)-methyl]pyrrolidine] | ≤ 10 nM | ≤ 10 nM | ≤ 10 nM | ≤ 10 nM | – | – | – | –
19 | COCCC(Oc1ccc(Cl)cc1C)C1CCNC1 (single isomer, unassigned) [5 (2nd peak)] | ≤ 10 nM | ≤ 10 nM | ≤ 10 nM | – | ≧8.0 | – | – | –
20 | COC[C@H](Oc1ccc(Cl)cc1Cl)[C@H]1CCNC1 [Example 3, (S)-3-[(R)-1-(2,4-Dichlorophenoxy)-2-methoxyethyl]pyrrolidine] | ≤ 10 nM | ≤ 10 nM | ≤ 10 nM | ≤ 10 nM | – | – | – | –

— patent publication US8455665B2, “3-phenoxymethylpyrrolidine compounds” (Theravance, Inc., priority 2009, dated 2013)
